One may read the Kp as tissue or fluid exposure divided by exposure in the circulation.

A value given as a limit tells only on which side of the number the result lay.

Results on three molecules are retold here after PMC8949893, “Chemical Synthesis, Pharmacokinetic Properties and Biological Effects of JM-00266, a Putative Non-Brain Penetrant Cannabinoid Receptor 1 Inverse Agonist” (International Journal of Molecular Sciences, 2022).

The test system of series [1] is mice. As to the kind of experiment: Food intake in 24-h food-deprived mice. It is filed as in vivo. Particulars: ACEA 1 mg/kg i.p. On the procedure: For food intake experiments, mice were food-deprived for 24 h before being submitted to an i.p. injection of ACEA (1 mg·kg^−1). […] Cumulative food intake was measured every hour over a period of 3 h from refeeding.

Series [2] has as its system mice. As to the kind of experiment: Body (rectal) temperature measurement. It is filed as in vivo. On the procedure: Mice rectal temperature was assessed using a VT4810 controller (Vertex Technology Corp., New Taipei City, Taiwan) adapted with a mouse rectal probe. In the first experiment, the impact of anandamide (10 mg·kg^−1) on body temperature was recorded during 30 min on animals injected either 20 min earlier with vehicle or JM-00266 (20 mg·kg^−1).

The nature of series [3]: Plasma kinetic profile after i.p., oral or intravenous administration. It is filed as in vivo, mice. As to conditions: mice, 10 mg·kg−1, i.p. or oral. On the procedure: (§1) At 1, 2, 4 and 8 h post-administration, animals were killed by cervical dislocation and blood was collected from the vena cava into tubes containing heparin and centrifuged immediately at 6500× g for 10 min at 4 °C. For determination of tissue distribution, brain, liver and adipose tissue were collected 4 h post-gavage. Plasma and tissue samples were directly extracted for further analysis by Liquid chromatography coupled to tandem mass spectrometry (LC-MS/MS).
(§2) Tissues were homogenized with a mini-bead beater (BioSpec Products, Bartlesville, OK) in 10 volumes of acetonitrile containing 15 ng of internal standard, JM-00252. Blood samples were centrifuged at 6500× g during 10 min 4 °C and 5 µL of plasma were diluted in 10 volumes of acetonitrile containing 15 ng of internal standard. Then, each homogenate of tissue or plasma was centrifuged for 10 min at 6500× g and the supernatant was recovered and carefully transferred to new glass tubes. Finally, the extract was injected into a 1200 LC system coupled to a 6460-QqQ MS/MS system equipped with a JetStream ESI source (Agilent technologies, Les Ulis, France). Separation was achieved on a Poroshell 120 EC-C8 2.1 mm × 100 mm, 2.7 µm column (Agilent technologies) at a flow rate of 0.4 mL.min^−1, 55 °C, with a linear gradient of (solvent A) water containing 1 mM ammonium formate and 0.2% formic acid and (solvent B) methanol containing 1 mM ammonium formate and 0.2% formic acid and as follows: 50% B for 1 min, up to 100% B in 4 min, and then maintained at 100% for 2 min. The acquisition was performed in positive Single Reaction Monitoring (SRM) mode (source temperature: 300 °C, nebulizer gas flow rate was 10 L·min^−1, 15 psi, sheath gas flow 7 L·min^−1, temperature 225 °C, capillary 4000 V, nozzle 1500 V). […] Results are expressed as ng·g^−1 for tissues and ng·mL^−1 for plasma.

Series [4] can be described thus: Tissue distribution 4 h after gavage. It is filed as in vivo. As to conditions: mice, 4 h after gavage in oil, 10 mg·kg−1. On the procedure:
as §1, §2

For series [5], the system named is mice. Description: Open field test (anxiety-related behavior). In kind it is in vivo. As to conditions: 10 mg·kg−1 i.p. 30 min before, 10 min exploration. On the procedure:
Anxiety-related behavior was assessed using the open field test (OF; Mouse Open Field Arena ENV-510; Med Associates Inc., Fairfax, VT, USA). […] The two regions were defined by grid lines that divided each box into the center and periphery, with each of the four lines being 11 cm from each wall.

A further series is described as follows: Brain/plasma ratio (B/P). In kind it is in vivo. Particulars: mice. On the procedure:
as §2
Brain/plasma ratios (B/P) were determined as previously described. […] Blood and brain were collected and directly extracted for further analysis by LC-MS/MS.

Series [6] deals with mice. As to the kind of experiment: Gastro-intestinal transit (charcoal marker). In kind it is in vivo. As to conditions: anandamide 10 mg·kg−1. On the procedure:
Short-term effects of JM-00266 on gastro-intestinal transit were tested as an indicator of peripheral CB1R activity. Transit was measured by administering a non-absorbed marker (10% charcoal suspension in 5% gum arabic) as previously described.

For the molecule `CCCCC/C=C\C/C=C\C/C=C\C/C=C\CCCC(=O)NCCCl.O` [ACEA, Arachidonyl-2′-chloroethylamide hydrate], the “Cumulative 3-h food intake, agonist alone” value with mice [1] is listed as “no effect on food intake”. For the same molecule, in the series on mice [2] (ACEA 1 mg·kg−1, t = 30 min), the “Effect on rectal temperature, agonist alone” value is recorded as “hypothermic response”.

In the case of `Cc1c(C(=O)NN2CCCCC2)nn(-c2ccc(Cl)cc2Cl)c1-c1ccc(Cl)cc1` [Rimonabant, reference compound], in series [3], the “Bioavailability compared with JM-00266, whatever the administration route” value is given as “far higher”. For the same molecule, the “Tissue distribution (plasma, brain, liver, visceral adipose tissue)” value in series [4] is “preferentially accumulated in the liver and the adipose tissue whereas brain concentration remained very low”. The “Cumulative 3-h food intake, co-administration with ACEA” value in the series on mice [1] (Rimonabant 10 mg·kg−1, JM-00266 20 mg·kg−1) is reported as “strong hypophagia”. Moreover, in the series on mice [5], the “Open field: locomotor activity (total ambulatory distance)” value is given as “did not significantly alter”, the “Open field: number of center entries” value is “did not significantly alter” and the “Open field: time spent in the center” value is “significantly decreased”. Also, the “Effect of the administration route on distribution in brain and plasma” value in the series “Brain/plasma ratio (B/P)” (10 mg·kg−1, i.p. vs oral) is recorded as “strongly affected”. Besides, the Kp in the series “Brain/plasma ratio (B/P)” (mouse, brain, intraperitoneal, 10 mg·kg−1, i.p. or oral, DMSO/Tween 80 aqueous solution, at maximal absorption time point) is over 1. The “Effect on hypothermic response to ACEA” value in the series on mice [2] (pre-treatment 20 min before ACEA 1 mg·kg−1, Rimonabant 10 mg·kg−1, JM-00266 20 mg·kg−1, t = 30 min) is recorded as “fully inhibited the hypothermic response”.

Consider `CCCCC/C=C\C/C=C\C/C=C\C/C=C\CCCC(=O)NCCO` [anandamide, Arachidonylethanolamide, reference compound], for which the “Effect on gastro-intestinal transit, agonist alone” value in the series with mice [6] was “slowing down of gastro-intestinal transit”. Also, the “Effect on rectal temperature, agonist alone” value with mice [2] (anandamide 10 mg·kg−1) was “decrease in rectal temperature”.
